Source: patent US20160185774A1, “Anti-Infective Compounds” (priority 2013, published 2016)
Values after ≈ are worked out from the molar mass of the structure shown.

Assays:
[1] = test system: M. tuberculosis; test: microbe, parasite or virus in culture; assay type: cell-based; conditions: Mycobacterium tuberculosis, 120 h; read-out: QUM (MIC80)

CCc1nc2ccc(Cl)cn2c1C(=O)NCc1ccc(N2CCN(C(=O)c3ccc(F)cc3)CC2)cc1 [Compound 235]
MIC80 [1]: < 1 µM

CCc1nc2ccc(Cl)cn2c1C(=O)NCc1ccc(N2CCN(C(=O)Cc3ccc(F)cc3)CC2)cc1 [Compound 236]
MIC80 [1]: < 1 µM

CCc1nc2ccc(Cl)cn2c1C(=O)NCc1ccc(N2CCC(C)(O)CC2)cc1 [Compound 237]
MIC80 [1]: < 1 µM

CCc1nc2ccc(Cl)cn2c1C(=O)NCc1ccc(N2CCC(O)(CC)CC2)cc1 [Compound 238]
MIC80 [1]: < 1 µM

CCc1nc2ccc(Cl)cn2c1C(=O)NCc1ccc(N2CCC(O)(c3ccccc3)CC2)cc1 [Compound 239]
MIC80 [1]: < 1 µM

CCc1nc2ccc(Cl)cn2c1C(=O)NCc1ccc(N2CCC(C(=O)c3ccc(F)cc3)CC2)cc1 [Compound 240]
MIC80 [1]: < 1 µM

CCc1nc2ccc(Cl)cn2c1C(=O)NCc1ccc(N2CCC(C(=O)c3ccc(OC(F)(F)F)cc3)CC2)cc1 [Compound 241]
MIC80 [1]: < 1 µM

CCc1nc2ccc(Cl)cn2c1C(=O)NCc1ccc(N2CCC(C(=O)Cc3ccc(F)cc3)CC2)cc1 [Compound 242]
MIC80 [1]: < 1 µM

CCc1nc2ccc(Cl)cn2c1C(=O)NCc1ccc(C2CCN(C(=O)c3ccc(F)cc3)CC2)cc1 [Compound 243]
MIC80 [1]: < 1 µM

CCc1nc2ccc(Cl)cn2c1C(=O)NCc1ccc(N2CCC(C(=O)Cc3ccc(F)cc3)CC2)cc1 [Compound 244]
melting point: 216.2 to 220.7 °C

CCc1nc2ccc(Cl)cn2c1C(=O)NCc1ccc(/C=C/c2ccc(F)cc2)cc1 [Compound 246]
MIC80 [1]: < 1 µM

CCc1nc2ccc(Cl)cn2c1C(=O)NCc1cccc(N(C)Cc2ccc(OC(F)(F)F)cc2)c1 [Compound 247]
MIC80 [1]: 1 to 20 µM (≈ 0.517 to 10.3 µg/mL) | melting point: > 142.3 °C (dec.)

CCc1nc2ccc(Cl)cn2c1C(=O)NCc1cccc(OCc2ccc(OC(F)(F)F)cc2)c1 [Compound 248]
MIC80 [1]: 1 to 20 µM (≈ 0.504 to 10.1 µg/mL) | melting point: > 142.7 °C (dec.)

CCc1nc2ccccn2c1C(=O)NCc1ccc(CC2CCOCC2)cc1 [Compound 252]
MIC80 [1]: < 1 µM

CCc1nc2ccc(Cl)cn2c1C(=O)NCc1nc2ccc(Cl)cc2[nH]1 [Compound 260]
MIC80 [1]: > 20 µM

CCc1nc2cc(Cl)ccn2c1C(=O)NCc1ccc2c(c1)ncn2C [Compound 272]
MIC80 [1]: 1 to 20 µM (≈ 0.368 to 7.36 µg/mL)

CCc1nc2ccc(Cl)cn2c1C(=O)NCc1ccc2cc[nH]c2c1 [Compound 273]
MIC80 [1]: < 1 µM

CCc1nc2ccc(Cl)cn2c1C(=O)NCc1ccc2ncn(Cc3ccc(OC(F)(F)F)cc3)c2c1 [Compound 274]
MIC80 [1]: 1 to 20 µM (≈ 0.528 to 10.6 µg/mL)

CCc1nc2cc(Cl)ccn2c1C(=O)NCc1ccc2ncn(Cc3ccc(OC(F)(F)F)cc3)c2c1 [Compound 275]
MIC80 [1]: > 20 µM

CCc1nc2cc(Cl)ccn2c1C(=O)NCc1ccc2nc[nH]c2c1 [Compound 276]
MIC80 [1]: > 20 µM

CCc1nc2cc(Cl)ccn2c1C(=O)NCc1ccc(NC(=O)NC(C)(C)C)cc1 [Compound 277]
MIC80 [1]: > 20 µM

CCc1nc2ccc(Cl)cn2c1C(=O)NCc1ccc(NC(=O)NC(C)(C)C)cc1 [Compound 278]
MIC80 [1]: 1 to 20 µM (≈ 0.428 to 8.56 µg/mL)

CCc1nc2cc(Cl)ccn2c1C(=O)NCc1csc(-c2ccc(OC(F)(F)F)cc2)n1 [Compound 279]
MIC80 [1]: < 1 µM

CCc1nc2ccc(Cl)cn2c1C(=O)NCc1csc(-c2ccc(OC(F)(F)F)cc2)n1 [Compound 280]
MIC80 [1]: < 1 µM

CCc1nc2c(F)cccn2c1C(=O)NCc1cccc(N2CCOCC2)c1 [Compound 281]
MIC80 [1]: 1 to 20 µM (≈ 0.382 to 7.65 µg/mL)

Cc1nc2cc(Cl)ccn2c1C(=O)NCc1ccc(N2CCC(c3ccc(F)cc3)CC2)cc1 [Compound 297]
MIC80 [1]: < 1 µM

Cc1nc2cc(Cl)ccn2c1C(=O)NCc1ccc(N2CCC(c3ccc(C(F)(F)F)cc3)CC2)cc1 [Compound 298]
MIC80 [1]: < 1 µM

Cc1ccc(C2CCN(c3ccc(CNC(=O)c4c(C)nc5cc(Cl)ccn45)cc3)CC2)cc1 [Compound 299]
MIC80 [1]: < 1 µM

Cc1nc2cc(Cl)ccn2c1C(=O)NCc1ccc(N2CCC(c3ccc(OC(F)(F)F)cc3)CC2)cc1 [Compound 300]
MIC80 [1]: < 1 µM

CCc1nc2ccc(Cl)cn2c1C(=O)NCc1ccc(C(=O)Nc2ccc(F)cc2)cc1 [Compound 301]
MIC80 [1]: < 1 µM

CCc1nc2cc(Cl)ccn2c1C(=O)NCc1ccc(C(=O)Nc2ccc(F)cc2)cc1 [Compound 302]
MIC80 [1]: < 1 µM

CCc1nc2ccc(Cl)cn2c1C(=O)NCc1ccc(C(=O)CN2CCOCC2)cc1 [Compound 303]
MIC80 [1]: < 1 µM

CCc1nc2cc(Cl)ccn2c1C(=O)NCc1ccc(C(=O)CN2CCOCC2)cc1 [Compound 304]
MIC80 [1]: 1 to 20 µM (≈ 0.441 to 8.82 µg/mL)

CCc1nc2ccc(Cl)cn2c1C(=O)NCc1ccc(C(=O)N(C)c2ccc(F)cc2)cc1 [Compound 305]
MIC80 [1]: 1 to 20 µM (≈ 0.465 to 9.3 µg/mL)

CCc1nc2cc(Cl)ccn2c1C(=O)NCc1ccc(C(=O)N(C)c2ccc(F)cc2)cc1 [Compound 306]
MIC80 [1]: 1 to 20 µM (≈ 0.465 to 9.3 µg/mL)

CCc1nc2ccc(Cl)cn2c1C(=O)NCc1ccc(N2CCOCC2)c(F)c1 [Compound 307]
MIC80 [1]: < 1 µM

CCc1nc2cc(Cl)ccn2c1C(=O)NCc1ccc(N2CCOCC2)c(F)c1 [Compound 308]
MIC80 [1]: < 1 µM

Cc1ccc(C2CCN(c3ccc(CNC(=O)c4c(C)nc5c(F)cccn45)cc3)CC2)cc1 [Compound 309]
MIC80 [1]: < 1 µM

Cc1nc2c(F)cccn2c1C(=O)NCc1ccc(N2CCC(c3ccc(C(F)(F)F)cc3)CC2)cc1 [Compound 310]
MIC80 [1]: < 1 µM

Cc1nc2c(F)cccn2c1C(=O)NCc1ccc(N2CCC(c3ccc(F)cc3)CC2)cc1 [Compound 311]
MIC80 [1]: < 1 µM

Cc1nc2c(F)cccn2c1C(=O)NCc1ccc(N2CCC(c3ccc(OC(F)(F)F)cc3)CC2)cc1 [Compound 312]
MIC80 [1]: < 1 µM

Cc1nc2ccc(F)cn2c1C(=O)NCc1ccc(N2CCC(c3ccc(F)cc3)CC2)cc1 [Compound 313]
MIC80 [1]: < 1 µM

Cc1ccc(C2CCN(c3ccc(CNC(=O)c4c(C)nc5ccc(F)cn45)cc3)CC2)cc1 [Compound 314]
MIC80 [1]: < 1 µM

Cc1nc2ccc(F)cn2c1C(=O)NCc1ccc(N2CCC(c3ccc(C(F)(F)F)cc3)CC2)cc1 [Compound 315]
MIC80 [1]: < 1 µM

Cc1nc2ccc(F)cn2c1C(=O)NCc1ccc(N2CCC(c3ccc(OC(F)(F)F)cc3)CC2)cc1 [Compound 316]
MIC80 [1]: < 1 µM

CCc1nc2ccc(Cl)cn2c1C(=O)NCc1ccc(C(=O)N(C)Cc2ccc(F)cc2)cc1 [Compound 317]
MIC80 [1]: 1 to 20 µM (≈ 0.479 to 9.58 µg/mL)

CCc1nc2cc(Cl)ccn2c1C(=O)NCc1ccc(C(=O)N(C)Cc2ccc(F)cc2)cc1 [Compound 318]
MIC80 [1]: 1 to 20 µM (≈ 0.479 to 9.58 µg/mL)

CCc1nc2ccc(Cl)cn2c1C(=O)NCc1ccc(OCC23CC4CC(CC(C4)C2)C3)cc1 [Compound 319]
MIC80 [1]: < 1 µM

CCc1nc2cc(Cl)ccn2c1C(=O)NCc1ccc(OCC23CC4CC(CC(C4)C2)C3)cc1 [Compound 320]
MIC80 [1]: < 1 µM

CCc1nc2ccc(Cl)cn2c1C(=O)NCc1ccc(NC23CC4CC(CC(C4)C2)C3)cc1 [Compound 321]
MIC80 [1]: < 1 µM

CCc1nc2cc(Cl)ccn2c1C(=O)NCc1ccc(NC23CC4CC(CC(C4)C2)C3)cc1 [Compound 322]
MIC80 [1]: < 1 µM

CCc1nc2ccc(Cl)cn2c1C(=O)NCc1ccc(NC2C3CC4CC(C3)CC2C4)cc1 (stereo not drawn) [Compound 323]
MIC80 [1]: < 1 µM

CCc1nc2cc(Cl)ccn2c1C(=O)NCc1ccc(NC2C3CC4CC(C3)CC2C4)cc1 (stereo not drawn) [Compound 324]
MIC80 [1]: < 1 µM

Cc1nc2ccc(Cl)cn2c1C(=O)NCc1ccc(N2CCC(c3ccc(F)cc3)CC2)cc1 [Compound 325]
MIC80 [1]: < 1 µM

Cc1ccc(C2CCN(c3ccc(CNC(=O)c4c(C)nc5ccc(Cl)cn45)cc3)CC2)cc1 [Compound 326]
MIC80 [1]: < 1 µM

Cc1nc2ccc(Cl)cn2c1C(=O)NCc1ccc(N2CCC(c3ccc(C(F)(F)F)cc3)CC2)cc1 [Compound 327]
MIC80 [1]: < 1 µM

Cc1nc2ccc(Cl)cn2c1C(=O)NCc1ccc(N2CCC(c3ccc(OC(F)(F)F)cc3)CC2)cc1 [Compound 328]
MIC80 [1]: < 1 µM

CCc1nc2cc(Cl)ccn2c1C(=O)NCc1cccc(C(=O)NCc2ccc(F)cc2)c1 [Compound 329]
MIC80 [1]: 1 to 20 µM (≈ 0.465 to 9.3 µg/mL)

CCc1nc2cc(Cl)ccn2c1C(=O)NCc1cccc(C(=O)N(C)Cc2ccc(F)cc2)c1 [Compound 330]
MIC80 [1]: 1 to 20 µM (≈ 0.479 to 9.58 µg/mL)

CCc1nc2ccc(Cl)cn2c1C(=O)NCc1ccc2oc(CN3CCOCC3)nc2c1 [Compound 331]
MIC80 [1]: 1 to 20 µM (≈ 0.454 to 9.08 µg/mL)

CCc1nc2cc(Cl)ccn2c1C(=O)NCc1ccc2oc(CN3CCOCC3)nc2c1 [Compound 332]
MIC80 [1]: 1 to 20 µM (≈ 0.454 to 9.08 µg/mL)

CCc1nc2cc(Cl)ccn2c1C(=O)NCc1ccc(-c2ccc(C(=O)O)cc2)cc1 [Compound 335]
MIC80 [1]: < 1 µM

CCc1nc2ccc(Cl)cn2c1C(=O)NCc1ccc(N2CCC(C(=O)OCCN3CCOCC3)CC2)cc1 [Compound 336]
MIC80 [1]: < 1 µM

CCc1nc2cc(Cl)ccn2c1C(=O)NCc1ccc(N2CCC(C(=O)OCCN3CCOCC3)CC2)cc1 [Compound 337]
MIC80 [1]: < 1 µM

CCC1N=C2C=CC(Cl)=CN2C1C(=O)NCc1ccc2oc(C)nc2c1 (stereo not drawn) [Compound 338]
MIC80 [1]: < 1 µM

CCc1nc2cc(Cl)ccn2c1C(=O)NCc1ccc2oc(C)nc2c1 [Compound 339]
MIC80 [1]: 1 to 20 µM (≈ 0.369 to 7.38 µg/mL)

CCc1nc2ccc(Cl)cn2c1C(=O)NCc1ccc(N2CC[C@@H](Oc3ccc(Cl)cc3)C2)cc1 [Compound 340]
MIC80 [1]: < 1 µM

CCc1nc2cc(Cl)ccn2c1C(=O)NCc1ccc(N2CC[C@@H](Oc3ccc(Cl)cc3)C2)cc1 [Compound 341]
MIC80 [1]: < 1 µM

CCc1nc2ccc(Cl)cn2c1C(=O)NCc1ccc(N2CC[C@H](Oc3ccc(Cl)cc3)C2)cc1 [Compound 342]
MIC80 [1]: < 1 µM

CCc1nc2cc(Cl)ccn2c1C(=O)NCc1ccc(N2CC[C@H](Oc3ccc(Cl)cc3)C2)cc1 [Compound 343]
MIC80 [1]: < 1 µM

CCc1nc2ccc(Cl)cn2c1C(=O)NCc1ccc(N2CCC(c3ccc(C(=O)OC)cc3)CC2)cc1 [Compound 344]
MIC80 [1]: < 1 µM

CCc1nc2ccc(Cl)cn2c1C(=O)NCc1ccc(N2CCC(c3ccc(CO)cc3)CC2)cc1 [Compound 345]
MIC80 [1]: < 1 µM

CCc1nc2ccc(Cl)cn2c1C(=O)NCc1ccc(N2CCC(c3ccc(C=O)cc3)CC2)cc1 [Compound 346]
MIC80 [1]: < 1 µM

Cc1nc2cc(F)ccn2c1C(=O)NCc1ccc(N2CCC(c3ccc(Cl)cc3)CC2)cc1 [Compound 348]
MIC80 [1]: < 1 µM

Cc1nc2cc(F)ccn2c1C(=O)NCc1ccc(N2CCC(c3ccc(C(F)(F)F)cc3)CC2)cc1 [Compound 349]
MIC80 [1]: < 1 µM

Cc1nc2cc(F)ccn2c1C(=O)NCc1ccc(N2CCC(c3ccc(OC(F)(F)F)cc3)CC2)cc1 [Compound 350]
MIC80 [1]: < 1 µM
